Source: ChEMBL document CHEMBL4340547, “Synthesis and SAR development of quinoline analogs as novel P2X7 receptor antagonists” (Bioorg Med Chem Lett, 2019)

What was measured:
P2X purinoceptor 7 [1] = molecular target: T1, P2X purinoceptor 7 (Homo sapiens, UniProt Q99572); assay: Antagonist activity at human P2X7 receptor expressed in HEK293 cells assessed as inhibition of BzATP-induced YO PRO dye uptake preincubated for 20 mins followed by YO PRO dye and BzATP addition measured after 30 mins by fluorescence assay; format: cell-based
T1 sequence (Q99572 whole entry): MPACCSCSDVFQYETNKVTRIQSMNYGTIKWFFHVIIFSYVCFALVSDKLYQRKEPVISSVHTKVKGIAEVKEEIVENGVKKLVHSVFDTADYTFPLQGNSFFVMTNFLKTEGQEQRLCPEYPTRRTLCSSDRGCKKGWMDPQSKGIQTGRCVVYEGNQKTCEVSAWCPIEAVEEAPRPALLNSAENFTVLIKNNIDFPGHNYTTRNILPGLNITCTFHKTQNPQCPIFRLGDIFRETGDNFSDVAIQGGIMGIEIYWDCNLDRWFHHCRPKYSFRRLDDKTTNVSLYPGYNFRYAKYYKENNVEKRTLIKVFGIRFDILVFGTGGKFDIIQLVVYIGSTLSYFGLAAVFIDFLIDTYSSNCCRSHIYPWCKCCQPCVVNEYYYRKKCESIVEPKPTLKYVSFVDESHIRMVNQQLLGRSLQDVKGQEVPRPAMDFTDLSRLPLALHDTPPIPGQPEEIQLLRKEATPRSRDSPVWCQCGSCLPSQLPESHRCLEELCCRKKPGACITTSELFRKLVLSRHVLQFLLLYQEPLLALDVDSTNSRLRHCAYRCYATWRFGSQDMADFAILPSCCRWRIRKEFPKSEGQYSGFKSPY

P2X purinoceptor 7 [2] = molecular target: T1, P2X purinoceptor 7; assay: Antagonist activity at P2X7R in LPS-stimulated human THP1 cells assessed as inhibition of BzATP-induced IL-1beta release preincubated for 30 mins followed by BzATP stimulation and measured after 30 mins by sandwich ELISA
MDR [3] = assay: Efflux ratio of apparent permeability in MDCK cells expressing MDR; format: ADME, cell-based, Canis lupus familiaris; settings: dog, MDCK-MDR1
P2X purinoceptor 7 [4] = molecular target: T2, P2X purinoceptor 7 (Mus musculus, UniProt Q9Z1M0); assay: Antagonist activity at mouse P2X7 receptor assessed as inhibition of BzATP-induced YO PRO dye uptake preincubated for 20 mins followed by YO PRO dye and BzATP addition measured after 30 mins by fluorescence assay
T2 sequence (Q9Z1M0 whole entry): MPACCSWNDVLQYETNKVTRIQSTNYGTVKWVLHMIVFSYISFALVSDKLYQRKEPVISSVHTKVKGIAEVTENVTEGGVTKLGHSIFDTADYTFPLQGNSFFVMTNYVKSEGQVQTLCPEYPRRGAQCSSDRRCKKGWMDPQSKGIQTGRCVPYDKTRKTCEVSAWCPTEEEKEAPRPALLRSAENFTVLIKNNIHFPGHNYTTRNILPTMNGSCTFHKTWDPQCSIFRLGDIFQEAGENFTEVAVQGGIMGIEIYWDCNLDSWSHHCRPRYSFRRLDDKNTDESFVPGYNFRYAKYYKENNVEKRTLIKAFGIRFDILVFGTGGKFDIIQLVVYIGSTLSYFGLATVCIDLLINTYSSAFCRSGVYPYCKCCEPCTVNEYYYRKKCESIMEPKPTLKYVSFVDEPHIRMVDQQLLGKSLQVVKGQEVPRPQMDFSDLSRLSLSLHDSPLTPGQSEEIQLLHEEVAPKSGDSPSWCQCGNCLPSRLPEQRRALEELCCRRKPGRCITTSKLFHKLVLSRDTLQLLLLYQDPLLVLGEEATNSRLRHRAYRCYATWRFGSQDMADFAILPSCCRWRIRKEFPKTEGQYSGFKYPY

MDR [5] = assay: Apparent permeability across apical to basolateral side in MDCK cells expressing MDR; format: ADME, cell-based, Canis lupus familiaris; settings: dog, MDCK-MDR1
[6] = Intrinsic clearance in rat liver microsomes; format: ADME, Microsome; settings: read-out: CLH
[7] = Intrinsic clearance in mouse liver microsomes; format: ADME, Microsome; settings: read-out: CLH
P2X purinoceptor 7 [8] = molecular target: T3, P2X purinoceptor 7 (Rattus norvegicus, UniProt Q64663); assay: Antagonist activity at rat P2X7 receptor assessed as inhibition of BzATP-induced YO PRO dye uptake preincubated for 20 mins followed by YO PRO dye and BzATP addition measured after 30 mins by fluorescence assay
T3 sequence (Q64663 whole entry): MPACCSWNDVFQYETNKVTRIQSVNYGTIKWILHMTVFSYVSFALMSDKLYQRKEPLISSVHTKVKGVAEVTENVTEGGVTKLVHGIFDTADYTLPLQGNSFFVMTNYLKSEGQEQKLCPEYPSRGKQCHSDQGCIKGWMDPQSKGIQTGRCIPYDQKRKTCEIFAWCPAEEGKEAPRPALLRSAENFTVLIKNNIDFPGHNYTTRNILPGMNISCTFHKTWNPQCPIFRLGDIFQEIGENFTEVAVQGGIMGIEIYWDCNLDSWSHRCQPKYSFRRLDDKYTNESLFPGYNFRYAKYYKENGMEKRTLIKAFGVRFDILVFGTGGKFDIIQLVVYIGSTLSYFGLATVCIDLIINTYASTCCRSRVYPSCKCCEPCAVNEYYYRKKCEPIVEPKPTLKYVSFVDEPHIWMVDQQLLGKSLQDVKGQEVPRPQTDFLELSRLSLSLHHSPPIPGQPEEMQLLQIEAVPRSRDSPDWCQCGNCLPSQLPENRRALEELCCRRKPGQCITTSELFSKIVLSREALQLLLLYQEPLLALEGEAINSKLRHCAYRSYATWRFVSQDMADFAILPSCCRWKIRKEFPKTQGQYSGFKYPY

[9] = Intrinsic clearance in human liver microsomes; format: ADME, Microsome; settings: read-out: CLH

Structure (SMILES)	IC50 (P2X purinoceptor 7 [1]) [nM]	IC50 (P2X purinoceptor 7 [2]) [nM]	efflux ratio (MDR [3])	IC50 (P2X purinoceptor 7 [4]) [nM]	Papp A→B (MDR [5]) [×10⁻⁶ cm/s]	microsomal CLint [6] [µL/min/mg]	microsomal CLint [7] [µL/min/mg]	IC50 (P2X purinoceptor 7 [8]) [nM]	microsomal CLint [9] [µL/min/mg]
COCCOc1ccc2c(C(=O)NCC3CCC(F)(F)CC3)c(Cl)ccc2n1	25	140							
C[C@@H]1CCC[C@@](O)(CNC(=O)c2c(Cl)ccc3nc(N4CC[C@@H](C(C)(C)O)C4)ccc23)C1	14	7.4	34	3690	1.5	10	68	130	75
O=C(NCC1CCC(F)(F)CC1)c1c(Cl)ccc2nc(C3CCCC3)ccc12	94	160							
O=C(NCC1CCC(F)(F)CC1)c1c(Cl)ccc2nc(N3CC[C@@H](F)C3)ccc12	19	104	0.69		18.4	31	10		12
O=C(NCC1CCC(F)(F)CC1)c1c(Cl)ccc2nc(NCCO)ccc12	72	76							
CN(C)[C@@H]1CCN(c2ccc3c(C(=O)NCC4CCC(F)(F)CC4)c(Cl)ccc3n2)C1	27	40	7.2		6.2	22	50		45
C[C@@H]1CCC[C@@](O)(CNC(=O)c2c(Cl)ccc3nc(N4CCC(N(C)C)C4)ccc23)C1 (stereo not given in full)	3.6	6	39	2000	1.4	32	52	549	44
O=C(NCC1CCC(F)(F)CC1)c1c(Cl)ccc2nc(C3=CCCC3)ccc12	36	90							
O=C(NCC1CCCC(F)(F)C1)c1c(Cl)ccc2nc(N3CC[C@@H](F)C3)ccc12 (stereo not given in full)	4.9	118	1.8	2000	16.4	102	102		41
CC1(C)OB(C2=CCCC2)OC1(C)C	31	75							
